Read-outs that look alike come from different tables or passages of the source.
Assays:
[1] = molecular target: T1, menin/MLL (terbium chelate-labeled menin, FITC-MBM1 peptide) (Homo sapiens, UniProt O00255, T541A); assay: Menin/MLL homogenous time-resolved fluorescence (HTRF) assay; type: binding; conditions: 30 min incubation
T1 construct: Menin (a.a 1-610-6xhis tag, 2.3 mg/mL in 20 mM Hepes)
T1 sequence (O00255 with tags, fused parts or gaps T541A): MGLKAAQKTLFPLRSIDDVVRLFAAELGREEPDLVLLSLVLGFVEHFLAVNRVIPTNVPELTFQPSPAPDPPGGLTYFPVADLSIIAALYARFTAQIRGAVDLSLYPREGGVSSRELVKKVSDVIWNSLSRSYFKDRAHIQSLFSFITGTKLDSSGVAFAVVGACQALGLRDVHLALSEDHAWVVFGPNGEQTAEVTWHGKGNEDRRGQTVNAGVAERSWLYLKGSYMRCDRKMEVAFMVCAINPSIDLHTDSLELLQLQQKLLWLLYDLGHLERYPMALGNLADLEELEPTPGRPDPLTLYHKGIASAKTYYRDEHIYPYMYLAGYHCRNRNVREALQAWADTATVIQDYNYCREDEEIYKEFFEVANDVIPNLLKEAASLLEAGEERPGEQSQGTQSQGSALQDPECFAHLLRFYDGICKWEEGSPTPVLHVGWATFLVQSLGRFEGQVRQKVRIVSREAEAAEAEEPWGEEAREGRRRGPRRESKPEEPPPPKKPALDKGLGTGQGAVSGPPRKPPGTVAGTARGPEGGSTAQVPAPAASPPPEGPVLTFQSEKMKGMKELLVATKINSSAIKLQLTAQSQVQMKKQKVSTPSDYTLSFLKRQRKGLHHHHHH
Method in brief: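 Competition binding read by time-resolved FRET (FITC 520 nm over terbium 490 nm) after compound meets labeled menin 1-610-His […] for 30 min, then FITC-MBM1 (75 nM) for 15 min, ambient temperature, 0.5% DMSO. Eleven-point four-fold dilutions, usually starting at 10 μM, fitted to four-parameter curves for IC50.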

MOLM14 cells = assay: Proliferation assay (spheroid confluence, 8 days), MOLM14; type: cell-based, human; conditions: Homo sapiens, MOLM-14, MOLM14; read-out: spheroid assay_MOLM14 IC50
Experimental: (§1) The anti-proliferative effect of menin/MLL protein/protein interaction inhibitor test compounds was assessed in human leukemia cell lines. The cell line MOLM14 harbors a MLL translocation and expresses the MLL fusion protein MLL-AF9, respectively, as well as the wildtype protein from the second allele. OCI-AML3 cells that carry the NPM1c gene mutation were also tested. […] KO-52 was used as a control cell line containing two MLL (KMT2A) wildtype alleles in order to exclude compounds that display general cytotoxic effects.
(§2) MOLM14 cells were cultured in RPMI-1640 (Sigma Aldrich) supplemented with 10% heat-inactivated fetal bovine serum (HyClone), 2 mM L-glutamine (Sigma Aldrich) and 50 μg/ml gentamycin (Gibco). KO-52 and OCI-AML3 cell lines were propagated in alpha-MEM (Sigma Aldrich) supplemented with 20% heat-inactivated fetal bovine serum (HyClone), 2 mM L-glutamine (Sigma Aldrich) and 50 μg/ml gentamycin (Gibco).
(§3) In order to assess the anti-proliferative effects, 200 MOLM14 cells, 200 OCI-AML3 cells or 300 KO-52 cells were seeded in 200 μl media per well in 96-well round bottom, ultra-low attachment plates (Costar, catalogue number 7007). Cell seeding numbers were chosen based on growth curves to ensure linear growth throughout the experiment. Test compounds were added at different concentrations and the DMSO content was normalized to 0.3%. Cells were incubated for 8 days at 37° C. and 5% CO2. Spheroid like growth was measured in real-time by live-cell imaging (IncuCyteZOOM, Essenbio, 4×objective) acquiring images at day 8. Confluence (%) as a measure of spheroid size was determined using an integrated analysis tool.
(§4) In order to determine the effect of the test compounds over time, the confluence in each well as a measure of spheroid size, was calculated. Confluence of the highest dose of a reference compound was used as baseline for the LC (Low control) and the confluence of DMSO treated cells was used as 0% cytotoxicity (High Control, HC).
(§5) Absolute IC50 values were calculated as percent change in confluence as follows:
(§6) LC=Low Control: cells treated with e.g. 1 μM of the cytotoxic agent staurosporin, or e.g. cells treated with a high concentration of an alternative reference compound
(§7) HC=High Control: Mean confluence (%) (DMSO treated cells)
(§8) % Effect=100−(100*(Sample−LC)/(HC−LC))
(§9) GraphPad Prism (version 7.00) was used to calculate the IC50. Dose-response equation was used for the plot of % Effect vs Log10 compound concentration with a variable slope and fixing the maximum to 100% and the minimum to 0%.

KO-52 cells = assay: Proliferation assay (spheroid confluence, 8 days), KO-52 control cell line; type: cell-based, human; conditions: Homo sapiens, read-out: spheroid assay_KO-52 IC50
Experimental: as §1, §2, §3, §4, §5, §6, §7, §8, §9

OCI-AML3 cells = assay: Proliferation assay (spheroid confluence, 8 days), OCI-AML3; type: cell-based, human; conditions: read-out: spheroid assay_OCI-AML3 IC50
Experimental: as §1, §2, §3, §4, §5, §6, §7, §8, §9

MEIS1 mRNA expression = MEIS1 mRNA expression assay (Quantigene Singleplex) in MOLM14 cells; type: cell-based, human; conditions: 48 hours incubation
Method in brief: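 Read-out: MEIS1 transcript counts, background-subtracted and divided by RPL28, expressed as fold change over DMSO-treated cells, then dose-response modelled for IC50. MOLM14 cells (3,750/well) received graded compound for 48 h before lysis and QuantiGene hybridization at 55 °C.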

[2] = Dynamic vapor sorption (DVS) moisture sorption analysis; type: physicochemical
Experimental: Dynamic Vapor Sorption (DVS)
The moisture sorption analysis (DVS) was performed using a ProUmid GmbH & Co. KG Vsorp Enhanced dynamic vapor sorption apparatus. The moisture profile was evaluated by monitoring vapor adsorption/desorption over the range of 0 to 90% relative humidity at 25° C. The sample weight equilibrium criteria were set at <0.01% change in 45 min with minimum and maximum time of acclimation at 50 min and 120 min, respectively. The moisture profile consisted of 2 cycles of vapor adsorption/desorption.
In the humidity range of 20-90% RH, the crystalline form adsorbs and desorbs moisture slowly and reversibly up to 2.5% by mass on average. Based on DVS, the crystalline HCl salt Form, at equilibrium, can contain around 3 equivalents of water (8.5-9.5% total moisture mass) at common ambient RH of 40% to 75%.

[3] = Homo sapiens, OCI-AML-3, OCI-AML3
[4] = common ambient RH of 40% to 75%

SMILES	IC50 [1] [nM]	IC50 (MOLM14 cells) [nM]	IC50 (KO-52 cells) [nM]	IC50 (MEIS1 mRNA expression; Homo sapiens, MOLM-14, 48 h) [nM]	further results
CCN(C(=O)c1cc(F)ccc1-n1cc(CC2CN(C(C(C)C)[C@H]3C[C@H](N4C[C@H]5CN(C(C)=O)C[C@@H]5C4)C3)C2)c2c(C)cncc21)C(C)C (mixture of isomers) [Compound 38b]	0.013	2	1200		
CNC(=O)N1CCC(CN2CC[C@H](Cc3cn(-c4ccc(F)cc4C(=O)N(C)C(C)C)c4cncc(C)c34)C2)CC1 (single isomer, unassigned) [Compound 101]	0.041		3100		IC50 (OCI-AML3 cells; [3]): 8 nM
COCC(=O)N1CCC(C(C)N2CCC(Cc3cn(-c4ccc(F)cc4C(=O)N(C)C(C)C)c4cncc(C)c34)C2)CC1 (single isomer, unassigned) [Compound 117a]	0.088		1600		IC50 (OCI-AML3 cells; [3]): 7 nM
Cc1cncc2c1c(C[C@@H]1CCN(CC3CCNC(=O)CC3)C1)cn2-c1ccc(F)cc1C(=O)N1CCC[C@H]1C (single isomer, unassigned) [Compound 353b]	0.238				IC50 (OCI-AML3 cells; OCI-AML3): 236 nM; IC50 (MEIS1 mRNA expression): 139 nM
CCN(C(=O)c1cc(F)ccc1-n1cc(CC2CN(C(C(C)C)[C@H]3C[C@@H](N4CCN(C(C)=O)CC4)C3)C2)c2c(C)cncc21)C(C)C (stereo partly shown) [Compound 35a]	0.059		1500	21	
CC(=O)N1CCC(CN2CC[C@@H](Cc3cn(-c4ccc(F)cc4C(=O)N(C)C(C)C)c4cncc(C)c34)C2)CC1.Cl [Compound 51a]	0.024				hygroscopicity of the crystalline form (DVS change in mass plot) ([2]; 0 to 90% relative humidity, 25° C., 2 cycles of adsorption/desorption): hygroscopic; solid-state form change after the DVS test (XRPD compared with the starting material) ([2]; XRPD of the fraction obtained after DVS): No indication of a solid-state form change was observed; dehydration behaviour at low relative humidity ([2]; below 10% RH, to complete dehydrated state at 0% RH): dehydrates rapidly; total moisture mass at equilibrium [2, 4]: 8.5-9.5%; water content at equilibrium [2, 4]: around 3 equivalents of water; moisture adsorbed and desorbed (slowly and reversibly), on average ([2]; humidity range of 20-90% RH, 25° C.): up to 2.5 % by mass
CN=S(=O)(c1cc(F)ccc1-n1cc(CC2CN(CC3CCOCC3)C2)c2c(C)cncc21)C(C)C (stereo not shown) [Compound 79]	0.168	92	9400		
Cc1cncc2c1c(CC1CN(CC3CCOCC3)C1)cn2-c1ccc(F)cc1S(=N)(=O)C(C)C (stereo not shown) [Compound 80]	0.116	99	7200		
CC(=O)N1CCC(O)(CN2CC[C@@H](Cc3cn(-c4ccc(F)cc4C(=O)N(C)C(C)C)c4cncc(C)c34)C2)CC1 [Compound 177]	0.109	35		268	
Cc1cncc2c1c(C[C@@H]1CCN(CC3CCC(=O)N(C)CC3)C1)cn2-c1ccc(F)cc1C(=O)N(C)C(C)C (stereo partly shown) [Compound 184]	0.06	26	7400		
CC(=O)N1CCC(CN2CC[C@@H](Cc3cn(-c4ccc(F)cc4C(=O)N4CCC(O)C4(C)C)c4cncc(C)c34)C2)CC1 (stereo partly shown) [Compound 313]	0.155	179		552	
[2H]C([2H])([2H])N(C(=O)c1cc(F)ccc1-n1cc(C[C@@H]2CCN(CC3CCN(C(C)=O)CC3)C2)c2c(C)cncc21)C(C)C [Compound 314]	0.055	6		19	
COCC1CCCN1C(=O)c1cc(F)ccc1-n1cc(C[C@@H]2CCN(CC3CCN(C(C)=O)CC3)C2)c2c(C)cncc21 (stereo partly shown) [Compound 321]	0.257	232		413	
CC(=O)N1CCC(CN2CC[C@@H](Cc3cn(-c4ccc(F)cc4C(=O)N4CCC[C@@H]4CO)c4cncc(C)c34)C2)CC1 [Compound 322]	0.152	323		~547	
CC(=O)N1CCC(CN2CC[C@@H](Cc3cn(-c4ccc(F)cc4C(=O)N4CCC[C@H]4CO)c4cncc(C)c34)C2)CC1 [Compound 323]	0.08	142		~146	
CC(=O)N1CCC(CN2CC[C@@H](Cc3cn(-c4ccc(F)cc4C(=O)N(CCO)C(C)C)c4cncc(C)c34)C2)CC1 [Compound 326]	0.038	16		23	
Cc1cncc2c1c(C[C@@H]1CCN(CC3CCOCC3)C1)cn2-c1ccc(F)cc1C(=O)N1C[C@H](O)C[C@H]1C [Compound 359]	0.166	79		358	
